Measurements taken from PMC4841036, “Synthesis and antimicrobial evaluation of two peptide LyeTx I derivatives modified with the chelating agent HYNIC for radiolabeling with technetium-99m” (The Journal of Venomous Animals and Toxins Including …, 2016).
Where no end group is shown, it is not given here.

Tests used:
E. coli (ATCC® 10536) = experiment: Microdilution test, MIC in TSB; format: cell-based, Escherichia coli; conditions: microdilution (CLSI) in TSB, 37 °C for 24 h, MIC = reduction of 100 % in bacterial growth, median (n = 3), each in duplicate, NI = no inhibition
Procedure: (§1) The maintenance of the antimicrobial activity after peptide LyeTx I modifications with HYNIC was evaluated by microdilution test, according to the Clinical and Laboratory Standards Institute. Bacterial strains of reference, S. aureus (ATCC® 6538) and E. coli (ATCC® 10536), were grown on tryptic soy agar at 37 °C for 18 h. Then, 0.5 McFarland scale bacterial suspensions (10^8 CFU^.mL^−1) were prepared on tryptic soy broth (TSB). The readouts were carried by determination of minimum inhibitory concentration (MIC), defined as a reduction of 100 % in bacterial growth post-incubation with the peptide LyeTx I derivatives at 37 °C for 24 h. LyeTx I obtained by chemical synthesis and without the coupled chelating agent was used as treatment control. Only TSB (no bacterial suspension and no peptide) was used as negative control. TSB plus bacterial suspension (no peptide) were used as positive control. MIC was expressed as median (n = 3). Each replicate was performed with a different bacterial colony, in duplicate.

S. aureus = conditions: different assay conditions and other bacterial strains; cited from earlier work
Source text: (§2) However, different assay conditions and other bacterial strains were employed, which can explain the slight differences in the MIC obtained in this study. […] On the other hand, the peptide HYNIC-LyeTx I derivative (N- ...

E. coli = conditions: different assay conditions and other bacterial strains; cited from earlier work
Source text: as §2

S. aureus (ATCC® 6538) = experiment: Microdilution test, MIC in TSB; format: cell-based, Staphylococcus aureus; conditions: microdilution (CLSI) in TSB, 37 °C for 24 h, MIC = reduction of 100 % in bacterial growth, median (n = 3), each in duplicate, NI = no inhibition
Procedure: as §1

For IWLTALKFLGKNLGKHLAKQQLAKL-NH2 [LyeTx I], the “Minimum inhibitory concentration (MIC)” value (E. coli (ATCC® 10536)) is given as 5.52 μmol^.L^−1, the MIC (S. aureus) is given as 3.79 μmol^.L^−1 and the MIC (E. coli) is given as 7.81 μmol^.L^−1. The “Minimum inhibitory concentration (MIC)” value (S. aureus (ATCC® 6538)) was 5.52 μmol^.L^−1.
